What all share (experiment): Inhibition Assay
In test [1] the target is Angiopoietin-1 receptor (Homo sapiens, UniProt Q02763). Here is the method: (§1) The kinase-catalyzed phosphorylation of poly(Glu4-Tyr) in the presence of varying concentrations of inhibitor was determined. The kinase were employed as fusion proteins of glutathion-S-transferase (GST) and the kinase domain. The relative amount of phosphorylated substrate was quantified by antiphosphotyrosine enzyme-linked immunosorbent assay.

In test [2] the target is Vascular endothelial growth factor receptor 2 (Homo sapiens, UniProt P35968). How it is done:
as §1

The target in test [3] is Vascular endothelial growth factor receptor 3 (Homo sapiens, UniProt P35916). How it is done: as §1
Test [4] addresses Epidermal growth factor receptor (Homo sapiens, UniProt P00533). How it is done: as §1
Test [5] concerns the target Insulin-like growth factor 1 receptor (Homo sapiens, UniProt P08069). Here is the method: as §1
Test [6] has as its target Fibroblast growth factor receptor 1 (Homo sapiens, UniProt P11362). How it is done:
as §1

Epidermal growth factor receptor, sequence (P00533 whole entry): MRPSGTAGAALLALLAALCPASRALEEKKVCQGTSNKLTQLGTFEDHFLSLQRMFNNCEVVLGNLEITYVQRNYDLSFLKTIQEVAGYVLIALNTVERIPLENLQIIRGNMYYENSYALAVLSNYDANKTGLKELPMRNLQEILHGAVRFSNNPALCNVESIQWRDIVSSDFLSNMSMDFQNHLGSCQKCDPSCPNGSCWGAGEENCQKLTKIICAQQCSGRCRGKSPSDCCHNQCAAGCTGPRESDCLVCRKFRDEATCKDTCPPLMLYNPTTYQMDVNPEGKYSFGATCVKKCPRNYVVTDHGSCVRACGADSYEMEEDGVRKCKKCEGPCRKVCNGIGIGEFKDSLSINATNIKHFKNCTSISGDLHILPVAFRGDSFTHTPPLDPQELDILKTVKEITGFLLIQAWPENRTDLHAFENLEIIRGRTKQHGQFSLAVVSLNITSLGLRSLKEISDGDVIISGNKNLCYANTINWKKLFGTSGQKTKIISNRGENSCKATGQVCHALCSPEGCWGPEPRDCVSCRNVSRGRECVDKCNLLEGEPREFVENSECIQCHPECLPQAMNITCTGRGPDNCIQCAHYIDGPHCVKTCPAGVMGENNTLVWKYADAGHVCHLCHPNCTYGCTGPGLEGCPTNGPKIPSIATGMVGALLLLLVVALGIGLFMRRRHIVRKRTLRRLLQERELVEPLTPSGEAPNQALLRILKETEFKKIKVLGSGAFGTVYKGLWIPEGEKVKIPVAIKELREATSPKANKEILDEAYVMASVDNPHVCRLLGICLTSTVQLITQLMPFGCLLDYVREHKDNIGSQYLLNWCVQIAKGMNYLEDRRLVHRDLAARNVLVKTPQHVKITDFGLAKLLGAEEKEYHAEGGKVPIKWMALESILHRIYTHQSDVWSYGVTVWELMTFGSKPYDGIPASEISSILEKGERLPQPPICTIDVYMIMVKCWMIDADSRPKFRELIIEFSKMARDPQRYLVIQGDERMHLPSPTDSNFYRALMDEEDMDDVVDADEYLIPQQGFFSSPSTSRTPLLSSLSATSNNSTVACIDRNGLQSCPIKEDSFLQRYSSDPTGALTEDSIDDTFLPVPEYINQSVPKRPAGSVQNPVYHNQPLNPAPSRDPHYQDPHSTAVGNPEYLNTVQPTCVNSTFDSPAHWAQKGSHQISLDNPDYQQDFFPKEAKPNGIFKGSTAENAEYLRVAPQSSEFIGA
Vascular endothelial growth factor receptor 2, sequence (P35968 whole entry): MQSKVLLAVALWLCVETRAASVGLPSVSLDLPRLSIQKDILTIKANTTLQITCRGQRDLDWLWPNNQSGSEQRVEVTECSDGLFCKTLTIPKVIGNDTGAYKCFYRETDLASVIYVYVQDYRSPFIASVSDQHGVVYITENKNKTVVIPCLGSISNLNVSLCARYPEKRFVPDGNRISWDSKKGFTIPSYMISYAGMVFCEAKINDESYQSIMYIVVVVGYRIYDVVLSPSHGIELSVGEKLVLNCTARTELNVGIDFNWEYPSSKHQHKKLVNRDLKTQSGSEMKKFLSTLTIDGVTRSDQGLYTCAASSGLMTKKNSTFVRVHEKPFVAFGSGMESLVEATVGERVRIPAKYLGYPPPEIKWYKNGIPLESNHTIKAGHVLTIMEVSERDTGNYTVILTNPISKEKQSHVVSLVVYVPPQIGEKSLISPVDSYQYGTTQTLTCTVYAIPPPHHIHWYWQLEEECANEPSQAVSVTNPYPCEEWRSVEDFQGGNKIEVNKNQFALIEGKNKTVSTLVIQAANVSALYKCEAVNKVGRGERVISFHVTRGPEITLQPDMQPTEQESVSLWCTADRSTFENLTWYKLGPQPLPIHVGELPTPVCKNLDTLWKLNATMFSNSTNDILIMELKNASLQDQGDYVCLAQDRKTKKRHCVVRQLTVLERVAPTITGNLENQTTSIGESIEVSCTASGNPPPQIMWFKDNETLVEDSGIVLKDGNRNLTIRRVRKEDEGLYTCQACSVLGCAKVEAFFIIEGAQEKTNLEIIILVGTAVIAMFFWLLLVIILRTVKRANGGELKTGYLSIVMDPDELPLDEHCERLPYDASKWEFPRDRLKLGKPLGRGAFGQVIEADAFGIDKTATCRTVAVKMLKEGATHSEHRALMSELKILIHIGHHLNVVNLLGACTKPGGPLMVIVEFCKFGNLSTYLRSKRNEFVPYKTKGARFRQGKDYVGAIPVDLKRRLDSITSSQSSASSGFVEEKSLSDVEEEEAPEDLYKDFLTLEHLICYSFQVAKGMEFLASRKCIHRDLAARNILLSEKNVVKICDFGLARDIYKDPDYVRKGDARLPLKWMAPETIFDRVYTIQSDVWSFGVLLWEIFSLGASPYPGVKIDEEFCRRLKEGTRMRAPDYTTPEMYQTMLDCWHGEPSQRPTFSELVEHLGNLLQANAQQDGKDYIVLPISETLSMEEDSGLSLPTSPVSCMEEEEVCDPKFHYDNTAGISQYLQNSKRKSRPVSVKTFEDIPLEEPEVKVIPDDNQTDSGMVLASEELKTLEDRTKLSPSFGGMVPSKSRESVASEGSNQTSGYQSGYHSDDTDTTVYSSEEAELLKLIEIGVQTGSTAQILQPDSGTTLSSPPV
Vascular endothelial growth factor receptor 3, sequence (P35916 whole entry): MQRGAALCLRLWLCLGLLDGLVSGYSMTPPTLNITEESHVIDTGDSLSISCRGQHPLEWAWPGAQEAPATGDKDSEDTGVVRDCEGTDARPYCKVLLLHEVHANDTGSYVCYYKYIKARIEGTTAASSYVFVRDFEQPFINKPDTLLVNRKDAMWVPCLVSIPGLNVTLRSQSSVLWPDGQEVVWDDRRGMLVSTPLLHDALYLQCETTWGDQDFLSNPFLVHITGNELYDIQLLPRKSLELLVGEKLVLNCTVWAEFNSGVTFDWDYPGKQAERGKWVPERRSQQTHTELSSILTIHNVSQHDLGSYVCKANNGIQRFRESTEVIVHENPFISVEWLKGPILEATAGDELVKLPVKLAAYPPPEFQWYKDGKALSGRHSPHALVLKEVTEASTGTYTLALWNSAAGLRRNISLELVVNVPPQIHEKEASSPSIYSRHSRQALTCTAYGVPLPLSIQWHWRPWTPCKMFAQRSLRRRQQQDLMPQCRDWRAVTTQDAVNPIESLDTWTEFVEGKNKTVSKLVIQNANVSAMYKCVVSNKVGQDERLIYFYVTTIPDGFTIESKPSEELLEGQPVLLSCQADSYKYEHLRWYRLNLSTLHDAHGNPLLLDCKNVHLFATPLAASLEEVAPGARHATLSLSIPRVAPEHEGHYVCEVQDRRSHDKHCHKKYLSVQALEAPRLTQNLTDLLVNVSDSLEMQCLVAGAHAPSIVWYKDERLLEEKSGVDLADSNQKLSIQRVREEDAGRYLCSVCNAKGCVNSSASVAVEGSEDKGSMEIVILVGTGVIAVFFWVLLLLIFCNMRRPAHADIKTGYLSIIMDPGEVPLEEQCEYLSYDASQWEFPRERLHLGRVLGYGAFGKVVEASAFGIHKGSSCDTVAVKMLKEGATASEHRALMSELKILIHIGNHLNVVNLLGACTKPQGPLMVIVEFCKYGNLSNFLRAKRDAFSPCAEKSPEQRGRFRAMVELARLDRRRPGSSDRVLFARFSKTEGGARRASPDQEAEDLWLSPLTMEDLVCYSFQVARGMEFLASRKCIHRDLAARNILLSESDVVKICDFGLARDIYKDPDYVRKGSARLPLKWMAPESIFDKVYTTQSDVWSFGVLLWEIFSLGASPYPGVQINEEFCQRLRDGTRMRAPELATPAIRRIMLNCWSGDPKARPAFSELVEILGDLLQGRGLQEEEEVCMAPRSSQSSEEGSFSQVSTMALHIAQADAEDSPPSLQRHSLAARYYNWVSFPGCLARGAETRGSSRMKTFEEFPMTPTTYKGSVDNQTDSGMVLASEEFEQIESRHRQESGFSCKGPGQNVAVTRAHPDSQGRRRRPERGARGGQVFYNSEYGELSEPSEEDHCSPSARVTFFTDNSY
Angiopoietin-1 receptor, sequence (Q02763 whole entry, the tested form may be a part): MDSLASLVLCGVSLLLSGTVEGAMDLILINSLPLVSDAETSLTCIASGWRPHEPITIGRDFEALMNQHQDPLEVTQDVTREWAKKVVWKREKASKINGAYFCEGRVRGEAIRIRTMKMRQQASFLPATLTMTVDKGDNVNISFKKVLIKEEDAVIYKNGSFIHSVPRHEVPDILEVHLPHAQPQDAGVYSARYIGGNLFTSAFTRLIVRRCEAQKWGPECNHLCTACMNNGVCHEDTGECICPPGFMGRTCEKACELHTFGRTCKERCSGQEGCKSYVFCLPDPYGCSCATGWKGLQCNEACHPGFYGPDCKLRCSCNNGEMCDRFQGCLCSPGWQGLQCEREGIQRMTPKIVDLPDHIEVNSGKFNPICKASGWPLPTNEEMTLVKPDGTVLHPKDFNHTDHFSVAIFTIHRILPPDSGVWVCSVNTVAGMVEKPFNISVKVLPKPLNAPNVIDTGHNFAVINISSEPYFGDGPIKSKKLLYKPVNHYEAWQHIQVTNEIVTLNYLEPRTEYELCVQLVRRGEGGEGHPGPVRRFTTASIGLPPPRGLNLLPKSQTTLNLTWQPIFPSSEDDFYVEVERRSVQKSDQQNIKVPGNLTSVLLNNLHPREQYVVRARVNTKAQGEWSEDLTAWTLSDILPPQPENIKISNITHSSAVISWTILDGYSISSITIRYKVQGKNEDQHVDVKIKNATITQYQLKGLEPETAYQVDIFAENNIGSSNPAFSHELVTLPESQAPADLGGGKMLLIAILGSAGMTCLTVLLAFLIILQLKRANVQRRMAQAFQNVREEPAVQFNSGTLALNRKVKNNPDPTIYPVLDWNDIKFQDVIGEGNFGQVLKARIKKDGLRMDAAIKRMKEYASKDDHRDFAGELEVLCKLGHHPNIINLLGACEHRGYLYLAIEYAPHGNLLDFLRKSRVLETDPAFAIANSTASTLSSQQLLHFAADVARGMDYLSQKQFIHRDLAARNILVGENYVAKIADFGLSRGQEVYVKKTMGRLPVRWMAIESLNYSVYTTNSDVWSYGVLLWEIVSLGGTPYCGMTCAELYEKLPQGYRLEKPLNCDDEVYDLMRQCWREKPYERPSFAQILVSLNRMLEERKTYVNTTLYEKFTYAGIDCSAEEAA

For orientation: IC50 means the concentration that inhibits the measured activity by half. A high value points to weaker potency. As for `CC1=C(CC(=O)O)c2cc(I)ccc2/C1=C\c1cccc(OCc2ccccc2)c1` [Sulindac analogue, 22], in test [1], half-maximal inhibition (IC50) required 7 µM.
With `CC1=C(CC(=O)O)c2cc(Br)ccc2/C1=C\c1ccccc1` [Sulindac analogue, 18], it took 1 µM to reach half-maximal inhibition in test [1] (IC50).
Turning to `CC1=C(CC(=O)O)c2cc(F)ccc2/C1=C\c1ccsc1` [Sulindac analogue, 13], the IC50 was 0.6 µM in test [1], 14 µM in test [2] and 15 µM in test [3].
Compound `CC1=C(CC(=O)O)c2cc(F)ccc2/C1=C\c1ccoc1` [Sulindac analogue, 14] returned an IC50 in test [2] of 8 µM.
In turn, `CCC1=C(CC(=O)O)c2cc(C#Cc3ccccc3)ccc2/C1=C\c1ccsc1` [Sulindac analogue, 24] came in with an IC50 in test [1] of 5 µM.
Take `CC1=C(CC(=O)O)c2cc(Cl)ccc2/C1=C\c1ccoc1` [Sulindac analogue, 17]: the IC50 in test [1] turned out to be 5 µM; in test [4], 8 µM; in test [5], 7 µM; in test [3], 14 µM.
Compound `CC1=C(CC(=O)O)c2cc(F)ccc2/C1=C\c1cccs1` [Sulindac analogue, 12] had an IC50 in test [1] of 5 µM.
On the same count and under the same terms, under `CCC1=C(CC(=O)O)c2cc(F)ccc2/C1=C\c1ccc(OCc2ccccc2)cc1` [Sulindac analogue, 16] stands 2 µM; under `CC1=C(CC(=O)O)c2cc(F)ccc2/C1=C\c1ccc(F)c(F)c1` [Sulindac analogue, 10], 5 µM.
With `CC1=C(CC(=O)O)c2ccc(Br)cc2/C1=C\c1ccsc1` [Sulindac analogue, 19], the IC50 in test [1] was determined as 1 µM; in test [4], 12 µM; in test [6], 23 µM; in test [5], 4 µM; in test [2], 3 µM; in test [3], 4 µM.
In test [1], `CC1=C(CC(=O)O)c2cc(F)ccc2/C1=C\c1cccc(OCc2ccccc2)c1` [Sulindac analogue, 11] displayed an IC50 of 11 µM.
As to `CC1=C(CC(=O)O)c2ccc(Br)cc2/C1=C\c1ccoc1` [Sulindac analogue, 21], the IC50 in test [1] came out at 3 µM; in test [4], 22 µM; in test [5], 13 µM; in test [2] it was 24 µM; in test [3], 15 µM.
With `CC1=C(CC(=O)O)c2ccc(Br)cc2/C1=C/c1ccsc1` [Sulindac analogue, 20], the IC50 in test [1] was 11 µM; in test [5], 71 µM.
`CCC1=C(CC(=O)O)c2cc(F)ccc2/C1=C\c1ccoc1` [Sulindac analogue, 15]: the IC50 is 1 µM in test [1], 0.9 µM in test [4], 3 µM in test [6] and 5 µM in test [2].
On to `CCC1=C(CC(=O)O)c2cc(/C=C/C(=O)OC(C)(C)C)ccc2/C1=C\c1ccsc1` [Sulindac analogue, 23], for which it took 5 µM to reach half-maximal inhibition in test [1] (IC50).

Values taken from BindingDB's records for doi:10.1002/cbic.200400192 (Max-Planck-Institut FÜR Molekulare Physiologie, 2005).
